Results as given in ChEMBL document CHEMBL1201862, “PubChem BioAssay data set” (2004).
Active and inactive are the calls of the source.

How the values were obtained:
[1] = target: G2/mitotic-specific cyclin-B1 (Homo sapiens, UniProt P14635); assay: Counterscreen assay for inhibitors of Wee1 degradation: dose response cell-based assay to identify inhibitors of cyclin B degradation. [Related pubchem assays: 1410, 1321 ]; type: functional
[2] = target: Type-1 angiotensin II receptor (Homo sapiens, UniProt P30556); assay: AT1 receptor antagonists, dose response, selectivity assay for APJ receptor antagonist project, cell-based, uHTS hits (AID 463214); type: functional;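 also: antagonist potency against angiotensin II stimulated AT1 response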
[3] = control 3'UTR Renilla luciferase suppression, dose response, counter-screen for Shn3 inhibitor project, cell-based, Clone20-Shn3RL, cherry-picked (AID 624133); type: functional
CHO = assay: cytotoxicity in TLR9-MyD88 CHO cells, dose response, cytotoxicity control for TLR9-MyD88 binding inhibitor project, cell-based, luminescence (AID 588339); type: functional, hamster; details: Cricetulus griseus;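 also: CHO cells stably coexpressing TLR9 and MyD88 fusions from primary screen; compound exposure lasted 48 hours before viability readout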

Type-1 angiotensin II receptor, sequence (P30556 whole entry): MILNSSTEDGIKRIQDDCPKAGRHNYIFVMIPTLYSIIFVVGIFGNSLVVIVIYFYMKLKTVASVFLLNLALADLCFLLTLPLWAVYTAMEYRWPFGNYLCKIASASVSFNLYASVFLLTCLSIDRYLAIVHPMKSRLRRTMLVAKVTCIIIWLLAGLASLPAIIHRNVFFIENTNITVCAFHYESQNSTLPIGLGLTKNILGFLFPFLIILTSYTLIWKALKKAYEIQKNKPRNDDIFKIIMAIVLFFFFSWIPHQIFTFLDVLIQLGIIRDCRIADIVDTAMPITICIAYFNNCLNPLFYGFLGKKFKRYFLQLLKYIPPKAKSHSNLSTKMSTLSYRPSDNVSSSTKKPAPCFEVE
G2/mitotic-specific cyclin-B1, sequence (P14635 whole entry): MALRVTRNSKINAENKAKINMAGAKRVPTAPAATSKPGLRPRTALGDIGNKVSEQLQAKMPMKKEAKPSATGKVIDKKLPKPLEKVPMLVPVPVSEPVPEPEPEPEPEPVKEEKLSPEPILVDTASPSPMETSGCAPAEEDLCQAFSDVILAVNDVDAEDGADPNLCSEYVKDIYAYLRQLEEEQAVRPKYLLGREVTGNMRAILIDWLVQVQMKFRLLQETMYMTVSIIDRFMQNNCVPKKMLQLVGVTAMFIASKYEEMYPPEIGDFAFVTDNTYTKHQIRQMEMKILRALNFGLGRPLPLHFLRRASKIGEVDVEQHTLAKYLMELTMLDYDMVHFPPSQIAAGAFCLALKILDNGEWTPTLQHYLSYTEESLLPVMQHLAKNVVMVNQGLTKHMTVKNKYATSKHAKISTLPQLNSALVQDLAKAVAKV

COc1ccc(NC(=O)/C(Cl)=C(/Cl)[S+]([O-])Cc2ccccc2)cn1 (centres undefined)
active: EC50 [1] > 1840 nM | IC50 [2] 3930 nM | AC50 [3] < 260 nM | IC50 (CHO) 453 nM
